Source: patent US10294217B2, “Fluoroindole derivatives as muscarinic M1 receptor positive allosteric modulators” (Suven Life Sciences Limited, priority 2015, dated 2019)

Test system: cerebral blood flow in the frontal cortex
Test: Modulation of cerebral blood flow in frontal cortex
Type: in vivo
Conditions: anaesthetized rats, intravenous, Laser Doppler, FIG. 2
Protocol: Modulation of Cerebral Blood Flow in Frontal Cortex:
The effect of test compound on modulation of cerebral blood flow was evaluated using rats.
Rats were acclimatized to the laboratory environment for at least 7 days. Rats (300-350 grams) were housed in a group of four in a controlled environment (Temp=21±3° C.; Humidity=30-70%) and maintained on a 12-hour light/dark cycle with lights on at 07:00 AM. Food and water was provided ad libitum.
Rats were anaesthetized with 12% urethane (i.p.). Animal's body core temperature was maintained at 37° C. via heating pad and rectal temperature probe. A small incision was made at one of the ventral side of the hind limb and the femoral vein was cannulated with PE10 tubing for drug application. Then animal was placed into a stereotaxic frame and a midline incision was made to expose the skull. A burr hole was drilled over the frontal cortex (stereotaxic coordinates 1 mm anterior and 4 mm lateral to bregma). Oxygen was supplied through the nose cone of the seterotaxic apparatus which was connected to the controlled gaseous supplier with a flow of 200 mL/minute. Laser Doppler probe (AD Instruments Inc) was placed over the hole to monitor cerebral blood flow. […] Data obtained was calculated as percent increase relative to resting basal blood flow level. […]

**Q.** With `Cn1cc(Cn2cc(C(=O)N[C@H]3CCCC[C@@H]3O)c3c(F)cccc32)cn1` [Example 1, N-[(1S,2S)-2-Hydroxycyclohexyl]-1-(1-methyl-1H-pyrazol-4-ylmethyl)-4-fluoro-1H-indole-3-carboxamide] as the compound, how does the cerebral blood flow read?
**A.** significantly increased the cerebral blood flow
